Results on six compounds are retold here after ChEMBL document CHEMBL6074699, “Innovative Cancer Therapies: Targeting Oncogenic Pathways through Placental Immunology, PROTAC Technology, and Kinase Degradation” (ACS Med Chem Lett, 2024).

What all share (type): cell-based
The test system of test [1] is Calu-1. Put plainly: PROTAC activity at DDB1/CyclinD1 in human Calu-1 cells assessed as induction of cyclin D1 degradation at 40 nM incubated for 16 hrs relative to control.
The test system of test [2] is Calu-1. Put plainly: PROTAC activity at DDB1/CyclinD1 in human Calu-1 cells assessed as induction of cyclin D1 degradation at 400 nM incubated for 16 hrs relative to control.
The test system of test [3] is Calu-1. As to the kind of experiment: PROTAC activity at DDB1/CDK4 in human Calu-1 cells assessed as induction of CDK4 degradation at 40 nM incubated for 16 hrs relative to control.
Test [4] has as its system Calu-1. Put plainly: PROTAC activity at DDB1/CDK4 in human Calu-1 cells assessed as induction of CDK4 degradation at 400 nM incubated for 16 hrs relative to control.

As to `CNc1ccc(C(=O)Nc2ccc(N(C)C)nn2)c(NCCCCNC(=O)CCN2CCN(c3ccc(Nc4ncc5c(C)c(C(C)=O)c(=O)n(C6CCCC6)c5n4)nc3)CC2)n1`, the Activity was above 80% in the test with Calu-1 [1], above 80% in the test with Calu-1 [2], below 80% in the test on Calu-1 [3] and below 80% in the test on Calu-1 [4].
With `CC(=O)c1c(C)c2cnc(Nc3ccc(N4CCN(CC(=O)NCCCCCCCNc5nc(C)ccc5C(=O)Nc5ccc(N(C)C)nn5)CC4)cn3)nc2n(C2CCCC2)c1=O`, the Activity was above 80% with Calu-1 [1], above 80% in the test with Calu-1 [2], below 80% in the test with Calu-1 [3] and above 80% in the test with Calu-1 [4].
`CNc1ccc(C(=O)Nc2ccc(N(C)C)nn2)c(NCCCCC(C)NC(=O)CN2CCN(c3ccc(Nc4ncc5c(C)c(C(C)=O)c(=O)n(C6CCCC6)c5n4)nc3)CC2)n1` (centres undefined): the Activity in the test with Calu-1 [1], with Calu-1 [2], with Calu-1 [3] and in the test with Calu-1 [4] was above 80% in each case.
Take `COc1ccc(NC(=O)c2ccc(C)nc2NCCCCCCCNC(=O)CN2CCN(c3ccc(Nc4ncc5c(C)c(C(C)=O)c(=O)n(C6CCCC6)c5n4)nc3)CC2)nn1`: the Activity in the test with Calu-1 [1] is above 80%; in the test on Calu-1 [2], above 80%; with Calu-1 [3], below 80%; with Calu-1 [4], above 80%.
Consider `CC(=O)c1c(C)c2cnc(Nc3ccc(N4CCN(CC(=O)NCCCCCNc5nc(C6CC6)ccc5C(=O)Nc5ccc(N(C)C)nn5)CC4)cn3)nc2n(C2CCCC2)c1=O`, for which the Activity in the test with Calu-1 [1], with Calu-1 [2], in the test with Calu-1 [3] and in the test on Calu-1 [4] was above 80% in each case.
For `CC(=O)c1c(C)c2cnc(Nc3ccc(N4CCN(CC(=O)NCCCCCCCNc5nc(C)ccc5C(=O)Nc5ccc(C)c(C6CC6)n5)CC4)cn3)nc2n(C2CCCC2)c1=O`, the Activity was above 80% in the test on Calu-1 [1], above 80% with Calu-1 [2], below 80% in the test with Calu-1 [3] and above 80% in the test with Calu-1 [4].
